# Biological target: T1, Human CXCR4 transfected HEK293 cells (Homo sapiens, UniProt P61073)
# T1 construct: expressed in transfected cells; host or cells: HEK293
# Experiment: CXCR4 functional calcium assay (calcium flux FLIPR, antagonism of SDF1 response)
# Type: cell-based
# Conditions: CXCR4 functional activity, antagonism of SDF1 (EC50 concentration), read-out: CXCR4 fKi
# Summary of the method: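 Dose-dependent antagonism of the SDF1 response was read by FLIPR as Fluo-4 calcium signal (2 μM dye) in CXCR4-expressing human HEK293 cells, in HBSS with probenecid, BSA and HEPES at pH 7.4 and 37° C. Test compound was given before an EC50-level SDF1 challenge. Curves were then fitted.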
# T1 sequence (P61073 whole entry): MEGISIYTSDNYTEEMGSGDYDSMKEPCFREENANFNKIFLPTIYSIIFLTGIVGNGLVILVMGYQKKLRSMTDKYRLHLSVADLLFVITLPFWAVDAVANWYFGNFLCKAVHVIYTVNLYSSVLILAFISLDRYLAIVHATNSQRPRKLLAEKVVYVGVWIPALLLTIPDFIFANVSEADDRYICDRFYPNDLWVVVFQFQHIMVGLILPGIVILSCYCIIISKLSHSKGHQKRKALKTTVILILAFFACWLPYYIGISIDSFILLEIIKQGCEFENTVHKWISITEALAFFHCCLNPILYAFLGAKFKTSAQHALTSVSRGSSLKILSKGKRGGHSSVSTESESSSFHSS
row,Structure (SMILES),Ki [µM]
1,"C[C@H](c1ccccc1)N1CCC(N2CCCN(c3cccc(C(=O)NCc4cccnc4)n3)CC2)CC1 [Example 92, 6-(4-{1-[(1R)-1-Phenylethyl]piperidin-4-yl}-1,4-diazepan-1-yl)-N-(pyridine-3-ylmethyl)pyridine-2-carboxamide]",0.02 to 0.1
2,"CC(C)N1CCCC(N2CCN(c3cccc(C(=O)Nc4ccncc4)n3)CC2)CC1 (centres unmarked) [Example 242, 6-{4-[1-(Propan-2-yl)azepan-4-yl]piperazin-1-yl}-N-(pyridin-4-yl)pyridine-2-carboxamide]",0.1 to 0.5
3,"[2H]C1([2H])CCN(c2cccc(C(=O)Nc3ccncc3)n2)CCN1C1CCN(C(C)C)CC1 [Example 186, 6-{5,5-Dihydrogenio-4-[1-(propan-2-yl)piperidin-4-yl]-1,4-diazepan-1-yl}-N-(pyridin-4-yl)pyridine-2-carboxamide]",< 0.02
4,"Cc1cccc(N2CCCN(C3CCN(Cc4ccccc4Cl)CC3)CC2)n1 [Example 262, 1-{1-[(2-Chlorophenyl)methyl]piperidin-4-yl}-4-(6-methylpyridin-2-yl)-1,4-diazepane]",0.5 to 1
5,"CC(C)N1CCC(N2CCCN(c3cccc(-c4nc5cccc(F)c5[nH]4)n3)CC2)CC1 [Example 142, 7-Fluoro-2-(6-{4-[1-(propan-2-yl)piperidin-4-yl]-1,4-diazepan-1-yl}pyridine-2-yl)-1H-1,3-benzodiazole]",0.02 to 0.1
6,"O=C(Nc1ccncc1)c1cccc(N2CCCN(C3CCC(N4CCCC4C(F)(F)F)CC3)CC2)n1 (centres unmarked) [Example 257, N-(Pyridin-4-yl)-6-(4-{4-[2-(trifluoromethyl)pyrrolidin-1-yl]cyclohexyl}-1,4-diazepan-1-yl)pyridine-2-carboxamide]",0.5 to 1
7,"[2H]C1([2H])CCN(C2CCN(C(C)C)CC2F)CCN1c1cccc(C(=O)Nc2ccncc2)n1 (centres unmarked) [Example 211, 6-{4-[3-Fluoro-1-(propan-2-yl)piperidin-4-yl]-7,7-dihydrogenio-1,4-diazepan-1-yl}-N-(pyridin-4-yl)pyridine-2-carboxamide]",0.02 to 0.1
8,"CC(C)N1CCC(N2CC3CCC2CN(c2cccc(C(=O)Nc4ccncc4)n2)C3)CC1 (centres unmarked) [Example 197, 6-{6-[1-(Propan-2-yl)piperidin-4-yl]-3,6-diazabicyclo[3.2.2]nonan-3-yl}-N-(pyridin-4-yl)pyridine-2-carboxamide]",0.02 to 0.1
9,"c1cc(NCCNC2CCCN(C3CCCC3)C2)nc(-c2ncc(C3CC3)[nH]2)c1 (centres unmarked) [Example 230, 1-Cyclopentyl-N-(2-{[6-(5-cyclopropyl-1H-imidazol-2-yl)pyridin-2-yl]amino}ethyl)piperidin-3-amine]",0.1 to 0.5
10,"O=C(Nc1ccncc1)c1cccc(N2CCC3CCCC(C2)N3C2CCN(Cc3ccccc3Cl)CC2)n1 (centres unmarked) [Example 218, 6-(10-{1-[(2-Chlorophenyl)methyl]piperidin-4-yl}-3,10-diazabicyclo[4.3.1]decan-3-yl)-N-(pyridin-4-yl)pyridine-2-carboxamide]",0.1 to 0.5
11,"CCCNC(=O)c1cccc(N2CCCN(C3CCN(C(C)C)CC3)CC2)n1 [Example 5, 6-{4-[1-(Propan-2-yl)piperidin-4-yl]-1,4-diazepan-1-yl}-N-propylpyridine-2-carboxamide]",0.02 to 0.1
12,"CC(C)N1CCC(N2CCCN(c3cccc(C(=O)NCCN(C)C)n3)CC2)CC1 [Example 16, N-[2-(Dimethylamino)ethyl]-6-{4-[1-(propan-2-yl)piperidin-4-yl]-1,4-diazepan-1-yl}pyridine-2-carboxamide]",0.1 to 0.5
13,"CC(C)(C)c1cnc(-c2cccc(N3CCCN(C4CCN(C(C)(C)C)CC4)CC3)n2)[nH]1 [Example 117, 1-[6-(4-tert-Butyl-1H-imidazol-2-yl)pyridine-2-yl]-4-(1-tert-butylpiperidin-4-yl)-1,4-diazepane]",0.1 to 0.5
14,"CCCCNC(=O)c1cccc(N2CCCN(C3CCN([C@@H](C)C(F)(F)F)CC3)CC2)n1 [Example 93, N-Butyl-6-(4-{1-[(2S)-1,1,1-trifluoropropan-2-yl]piperidin-4-yl}-1,4-diazepan-1-yl)pyridine-2-carboxamide]",0.02 to 0.1
15,"CC(C)N1CCC(N2CCCN(c3cccc(C(=O)Nc4ccncc4)n3)CC2C)CC1 (centres unmarked) [Example 193, 6-{3-Methyl-4-[1-(propan-2-yl)piperidin-4-yl]-1,4-diazepan-1-yl}-N-(pyridin-4-yl)pyridine-2-carboxamide]",< 0.02
16,"CC[C@@H](C)N1CCC(N2CCCN(c3cccc(C(=O)Nc4ccncc4)n3)CC2)CC1 [Example 78, 6-(4-{1-[(2R)-Butan-2-yl]piperidin-4-yl}-1,4-diazepan-1-yl)-N-(pyridine-4-yl)pyridine-2-carboxamide]",< 0.02
17,"CCCCNC(=O)c1cccc(N2CCCN(C3CCN(C(C)C)CC3)CC2)n1 [Example 7, N-Butyl-6-{4-[1-(propan-2-yl)piperidin-4-yl]-1,4-diazepan-1-yl}pyridine-2-carboxamide]",0.02 to 0.1
18,"CC(C)N1CCC(N2CC3CC(C2)N(c2cccc(C(=O)NCC4CC4)n2)C3)CC1 (centres unmarked) [Example 200, N-(Cyclopropylmethyl)-6-{3-[1-(propan-2-yl)piperidin-4-yl]-3,6-diazabicyclo[3.2.1]octan-6-yl}pyridine-2-carboxamide]",0.5 to 1
19,"Cc1nc(-c2cccc(NCCNC3CCN(C4CCCC4)CC3)n2)[nH]c1C1CC1 [Example 232, 1-Cyclopentyl-N-(2-{[6-(5-cyclopropyl-4-methyl-1H-imidazol-2-yl)pyridin-2-yl]amino}ethyl)piperidin-4-amine]",0.1 to 0.5
20,"CC(C)N1CCC(N2CCCN(c3cccc(-c4cc5ncccc5[nH]4)n3)CC2)CC1 [Example 96, 1-[1-(Propan-2-yl)piperidin-4-yl]-4-(6-{1H-pyrrolo[3,2-b]pyridine-2-yl}pyridine-2-yl)-1,4-diazepane]",0.02 to 0.1
21,"[2H]C1([2H])CCN(c2cccc(C(=O)Nc3ccncc3)n2)CCN1C1CCN(C2CCCC2)CC1 [Example 191, 6-[4-(1-Cyclopentylpiperidin-4-yl)-5,5-dihydrogenio-1,4-diazepan-1-yl]-N-(pyridin-4-yl)pyridine-2-carboxamide]",< 0.02

# More lines, now with the values ahead:
row,Ki [µM],Structure (SMILES)
1,0.5 to 1,"O=C(NCC1CC1)c1csc(N2CCCN(C3CCN(Cc4ccccc4Cl)CC3)CC2)n1 [Example 265, 2-(4-{1-[(2-Chlorophenyl)methyl]piperidin-4-yl}-1,4-diazepan-1-yl)-N-(cyclopropylmethyl)-1,3-thiazole-4-carboxamide]"
2,0.5 to 1,"CCCCc1cnc(-c2cccc(N3CCCN(C4CCN(C(C)C)CC4)CC3)n2)o1 [Example 171, 1-[6-(5-Butyl-1,3-oxazol-2-yl)pyridin-2-yl]-4-[1-(propan-2-yl)piperidin-4-yl]-1,4-diazepane]"
3,0.5 to 1,"CC(C)c1nc(-c2cccc(N3CCCN(C4CCN(C(C)C)CC4)CC3)n2)no1 [Example 158, 1-{6-[5-(Propan-2-yl)-1,2,4-oxadiazol-3-yl]pyridine-2-yl}-4-[1-(propan-2-yl)piperidin-4-yl]-1,4-diazepane]"
4,0.02 to 0.1,"O=C(Nc1ccncc1)c1cccc(N2CCN(C3CCCN(Cc4ccc(F)cc4Cl)CC3)CC2)n1 (centres unmarked) [Example 241, 6-(4-{1-[(2-Chloro-4-fluorophenyl)methyl]azepan-4-yl}piperazin-1-yl)-N-(pyridin-4-yl)pyridine-2-carboxamide]"
5,0.1 to 0.5,"CC(C)N1CCC(N2CCC(C)N(c3cccc(C(=O)NCC4CC4)n3)CC2)CC1 (centres unmarked) [Example 174, N-(Cyclopropylmethyl)-6-{7-methyl-4-[1-(propan-2-yl)piperidin-4-yl]-1,4-diazepan-1-yl}pyridine-2-carboxamide]"
6,< 0.02,"CCc1nc(-c2cccc(N3CCCN(C4CCN(C(C)C)CC4)CC3)n2)[nH]c1C1CC1 [Example 122, 1-[6-(4-Cyclopropyl-5-ethyl-1H-imidazol-2-yl)pyridine-2-yl]-4-[1-(propan-2-yl)piperidin-4-yl]-1,4-diazepane]"
7,< 0.02,"CC(C)N1CCC(N2CCCN(c3cccc(-c4nc5ccccc5[nH]4)n3)CC2)CC1 [Example 141, 2-(6-{4-[1-(Propan-2-yl)piperidin-4-yl]-1,4-diazepan-1-yl}pyridine-2-yl)-1H-1,3-benzodiazole]"
8,0.02 to 0.1,"CC(C)N1CCC(N2CCCN(c3cccc(C(=O)Nc4cccnc4)n3)CC2)CC1 [Example 29, 6-{4-[1-(Propan-2-yl)piperidin-4-yl]-1,4-diazepan-1-yl}-N-(pyridin-3-yl)pyridine-2-carboxamide]"
9,0.1 to 0.5,"CC(C)N1CCC(N2CCCN(c3cccc(C(=O)NCCC#N)n3)CC2)CC1 [Example 13, N-(2-Cyanoethyl)-6-{4-[1-(propan-2-yl)piperidin-4-yl]-1,4-diazepan-1-yl}pyridine-2-carboxamide]"
10,< 0.02,"Cc1nc(-c2cccc(N3CC[C@@H](NC[C@@H]4CCN(C5CCCC5)C4)C3)n2)[nH]c1C1CC1 [Example 224, (3R)—N-{[(3S)-1-Cyclopentylpyrrolidin-3-yl]methyl}-1-[6-(4-cyclopropyl-5-methyl-1H-imidazol-2-yl)pyridin-2-yl]pyrrolidin-3-amine]"
11,0.1 to 0.5,"CC(C)N1CCC(N2CCCN(c3cccc(C(=O)N4CCc5ccccc5C4)n3)CC2)CC1 [Example 22, 2-[(6-{4-[1-(Propan-2-yl)piperidin-4-yl]-1,4-diazepan-1-yl}pyridin-2-yl)carbonyl]-1,2,3,4-tetrahydroisoquinoline]"
12,0.1 to 0.5,"Cc1nc(-c2cccc(N3CCN(C4CCCN(C(C)C)CC4)CC3)n2)[nH]c1C1CC1 (centres unmarked) [Example 243, 4-{4-[6-(5-Cyclopropyl-4-methyl-1H-imidazol-2-yl)pyridin-2-yl]piperazin-1-yl}-1-(propan-2-yl)azepane]"
13,0.1 to 0.5,"c1cc(NCCNCCCNC2CCCC2)nc(-c2ncc(C3CC3)[nH]2)c1 [Example 237, N-(2-{[3-(Cyclopentylamino)propyl]amino}ethyl)-6-(5-cyclopropyl-1H-imidazol-2-yl)pyridin-2-amine]"
14,0.5 to 1,"CC(C)N1CCC(N2CCCN(c3cccc(-c4noc(C(C)(C)C)n4)n3)CC2)CC1 [Example 159, 1-[6-(5-tert-Butyl-1,2,4-oxadiazol-3-yl)pyridine-2-yl]-4-[1-(propan-2-yl)piperidin-4-yl]-1,4-diazepane]"

# From patent US10995091B2 (Proximagen, LLC, priority 2010, dated 2021)
